Patent publication US8586530B2, “Modulation of inhibition of ferrochelatase by N-methyl protoporphyrin” (University of South Florida, priority 2006, dated 2013)
Residue numbers refer to the chain shown, from its start.

Tests used:
Test in all cases: Fluorescence titration of NMPP binding (quenching of intrinsic protein fluorescence)
Conditions in all cases: 10 mM Tris-acetate pH 8, 0.05% Tween-80, read-out: dissociation constant (Kd) of NMPP
[1] = molecular target: T1, ferrochelatase variant P255R (Mus musculus, UniProt P22315, P308R); parameters: species or system murine
T1 construct: In wild-type, murine, mature ferrochelatase, five tryptophan residues; penta-histidine tag (N); made in house; host or cells: E. coli BL21(DE3)
T1 sequence (P22315 54-422 P308R): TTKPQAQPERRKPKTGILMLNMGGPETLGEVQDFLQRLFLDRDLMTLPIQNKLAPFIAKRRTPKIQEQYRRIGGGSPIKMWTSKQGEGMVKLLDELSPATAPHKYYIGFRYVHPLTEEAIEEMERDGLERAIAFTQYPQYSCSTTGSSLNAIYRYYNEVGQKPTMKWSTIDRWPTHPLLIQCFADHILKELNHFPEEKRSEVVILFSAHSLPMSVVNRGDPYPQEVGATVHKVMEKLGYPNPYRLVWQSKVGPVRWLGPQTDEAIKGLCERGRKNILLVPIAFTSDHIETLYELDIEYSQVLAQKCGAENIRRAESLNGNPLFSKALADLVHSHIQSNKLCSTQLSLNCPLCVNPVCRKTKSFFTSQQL
Procedure: (§1) Aliquots of NMPP were added to a solution of enzyme in 10 mM Tris-acetate, pH 8 containing 0.05% Tween-80 and incubated on ice for 1 hr. The intrinsic protein fluorescence was monitored at 331 nm (λex=283 nm). The Kd value for NMPP was determined by fitting the data to Equation 3. The enzymes used in each set were: A. wild-type ferrochelatase (40 nM); B. P255R (250 nM); C. P255G (120 nM).
(§2) The equilibrium constant for NMPP binding to ferrochelatase could be determined from the change in intrinsic protein fluorescence upon ligand addition. […]
(§3) Fluorescence Titration Measurements. Equilibrium fluorescence measurements were made using a Shimadzu RF-5301PC fluorimeter at 23° C. with excitation and emission wavelengths at 283 nm and 331 nm, respectively. The decrease in protein fluorescence, due to NMPP binding, was monitored. […] In a typical titration experiment, aliquots of the NMPP stock were added to the protein solution and, upon incubation on ice for 1 h, the quenching in fluorescence was monitored as described above. […] The observed fluorescence intensity was plotted against NMPP concentration and the dissociation constant of NMPP for ferrochelatase was determined using the least-squares fit of each data set to equation 3 by nonlinear regression: […]

[2] = molecular target: T2, ferrochelatase variant P255G (Mus musculus, UniProt P22315, P308G); parameters: species or system murine
T2 construct: In wild-type, murine, mature ferrochelatase, five tryptophan residues; penta-histidine tag (N); made in house; host or cells: E. coli BL21(DE3)
T2 sequence (P22315 54-422 P308G): T1 sequence (P22315 54-422 P308R) with R255G
Procedure: as §1, §2, §3

[3] = molecular target: T3, wild-type, murine ferrochelatase (Mus musculus, UniProt P22315)
T3 construct: In wild-type, murine, mature ferrochelatase, five tryptophan residues; penta-histidine tag (N); made in house; host or cells: E. coli BL21(DE3)
T3 sequence (P22315 54-422): T1 sequence (P22315 54-422 P308R) with R255P
Procedure: as §1, §2, §3

N-methyl protoporphyrin [NMPP]
Kd [1]: 160 ± 70 nM | Kd [2]: 300 ± 100 nM | Kd [3]: 9 ± 5 nM
